# Measured values from ChEMBL document CHEMBL4342421, “Current scenario of tetrazole hybrids for antibacterial activity” (Eur J Med Chem, 2019).
# How the values were obtained:
# [1] = test system: Bacillus subtilis; assay: Antimicrobial activity against Bacillus subtilis assessed as zone of inhibition at 50 ug/ml; format: functional; conditions: read-out: IZ
# [2] = test system: Aspergillus fumigatus; assay: Antifungal activity against Aspergillus fumigatus assessed as zone of inhibition at 50 ug/ml; format: functional; conditions: read-out: IZ
# [3] = test system: Pseudomonas aeruginosa; assay: Antimicrobial activity against Pseudomonas aeruginosa assessed as zone of inhibition at 50 ug/ml; format: functional; conditions: read-out: IZ
# [4] = test system: Staphylococcus aureus; assay: Antimicrobial activity against Staphylococcus aureus assessed as zone of inhibition at 50 ug/ml; format: functional; conditions: read-out: IZ
# [5] = test system: Escherichia coli; assay: Antimicrobial activity against Escherichia coli assessed as zone of inhibition at 50 ug/ml; format: functional; conditions: read-out: IZ
# [6] = test system: Candida albicans; assay: Antifungal activity against Candida albicans assessed as zone of inhibition at 50 ug/ml; format: functional; conditions: read-out: IZ
# [7] = test system: Pseudomonas aeruginosa; assay: Antimicrobial activity against Pseudomonas aeruginosa assessed as zone of inhibition at 250 ug/ml; format: functional; conditions: read-out: IZ
# [8] = test system: Bacillus cereus; assay: Antimicrobial activity against Bacillus cereus assessed as zone of inhibition at 250 ug/ml; format: functional; conditions: read-out: IZ
# [9] = test system: Candida albicans; assay: Antifungal activity against Candida albicans assessed as zone of inhibition at 250 ug/ml; format: functional; conditions: read-out: IZ
# [10] = test system: Escherichia coli; assay: Antimicrobial activity against Escherichia coli assessed as zone of inhibition at 250 ug/ml; format: functional; conditions: read-out: IZ
# [11] = test system: Aspergillus niger; assay: Antifungal activity against Aspergillus niger assessed as zone of inhibition at 250 ug/ml; format: functional; conditions: read-out: IZ
# [12] = test system: Staphylococcus aureus; assay: Antimicrobial activity against Staphylococcus aureus assessed as zone of inhibition at 250 ug/ml; format: functional; conditions: read-out: IZ
# [13] = test system: Staphylococcus aureus; assay: Antimicrobial activity against Staphylococcus aureus; format: functional
# [14] = test system: Aspergillus niger; assay: Antifungal activity against Aspergillus niger; format: functional
# [15] = test system: Candida albicans; assay: Antifungal activity against Candida albicans; format: functional
# [16] = test system: Escherichia coli; assay: Antimicrobial activity against Escherichia coli; format: functional
# [17] = test system: Pseudomonas aeruginosa; assay: Antimicrobial activity against Pseudomonas aeruginosa; format: functional
# [18] = test system: Bacillus cereus; assay: Antimicrobial activity against Bacillus cereus; format: functional
# [19] = test system: Salmonella typhimurium; assay: Antimicrobial activity against Salmonella typhimurium; format: functional, Salmonella enterica subsp. enterica serovar Typhimurium; conditions: Salmonella enterica
# [20] = test system: Bacillus subtilis; assay: Antimicrobial activity against Bacillus subtilis; format: functional
Structure (SMILES),zone of inhibition at 50 µg/mL [1] [mm],zone of inhibition at 50 µg/mL [2] [mm],zone of inhibition at 50 µg/mL [3] [mm],zone of inhibition at 50 µg/mL [4] [mm],zone of inhibition at 50 µg/mL [5] [mm],zone of inhibition at 50 µg/mL [6] [mm],zone of inhibition at 250 µg/mL [7] [mm],zone of inhibition at 250 µg/mL [8] [mm],zone of inhibition at 250 µg/mL [9] [mm],zone of inhibition at 250 µg/mL [10] [mm],zone of inhibition at 250 µg/mL [11] [mm],zone of inhibition at 250 µg/mL [12] [mm],also measured
O=[N+]([O-])c1ccccc1-n1nnnc1-c1cccnc1,10 to 22,10 to 22,10 to 22,10 to 22,10 to 22,10 to 22,–,–,–,–,–,–,–
CC(=O)N1N=C(Cn2cc(-c3nn(-c4ccncc4)cc3-c3nnnn3-c3ccc(Cl)cc3)c3cc(Cl)ccc32)OC1(C)c1ccc(C(F)(F)F)cc1 (centres undefined),–,–,–,–,–,–,8 to 20,8 to 20,8 to 20,8 to 20,8 to 20,8 to 20,–
Cc1ccc(-c2nnnn2-c2nc3ccccc3s2)cc1,–,–,–,–,–,–,16 to 26,16 to 26,16 to 26,16 to 26,16 to 26,16 to 26,MIC [13]: 50 to 100 µg/mL; MIC [14]: 50 to 100 µg/mL; MIC [15]: 50 to 100 µg/mL; MIC [16]: 50 to 100 µg/mL; MIC [17]: 50 to 100 µg/mL; MIC [18]: 50 to 100 µg/mL
COc1ccc(-c2nnnn2-c2ccccn2)cc1,16 to 24,16 to 24,16 to 24,16 to 24,16 to 24,16 to 24,–,–,–,–,–,–,–
CC(=O)N1N=C(Cn2cc(-c3nn(-c4ccncc4)cc3-c3nnnn3-c3ccc(Br)cc3)c3cc(Cl)ccc32)OC1(C)c1ccc(C(F)(F)F)cc1 (centres undefined),–,–,–,–,–,–,8 to 20,8 to 20,8 to 20,8 to 20,8 to 20,8 to 20,–
CC(=O)N1N=C(Cn2cc(-c3nn(-c4ccncc4)cc3-c3nnnn3-c3ccccc3)c3cc(Cl)ccc32)OC1(C)c1ccc(C(F)(F)F)cc1 (centres undefined),–,–,–,–,–,–,8 to 20,8 to 20,8 to 20,8 to 20,8 to 20,8 to 20,–
Clc1ccc(-c2nnnn2-c2ccccn2)cc1,10 to 24,10 to 24,10 to 24,10 to 24,10 to 24,10 to 24,–,–,–,–,–,–,–
Clc1ccccc1-n1nnnc1-c1cccnc1,10 to 22,10 to 22,10 to 22,10 to 22,10 to 22,10 to 22,–,–,–,–,–,–,–
CC(=O)N1N=C(Cn2cc(-c3nn(-c4ccncc4)cc3-c3nnnn3-c3ccc(C(F)(F)F)cc3)c3cc(Cl)ccc32)OC1(C)c1ccc(C(F)(F)F)cc1 (centres undefined),–,–,–,–,–,–,8 to 20,8 to 20,8 to 20,8 to 20,8 to 20,8 to 20,–
CC(=O)N1N=C(Cn2cc(-c3nn(-c4ccncc4)cc3-c3nnnn3-c3ccc(C)cc3)c3cc(Cl)ccc32)OC1(C)c1ccc(C(F)(F)F)cc1 (centres undefined),–,–,–,–,–,–,8 to 20,8 to 20,8 to 20,8 to 20,8 to 20,8 to 20,–
Brc1cccc(-c2nnnn2-c2ccccn2)c1,10 to 24,10 to 24,10 to 24,10 to 24,10 to 24,10 to 24,–,–,–,–,–,–,–
COc1ccccc1-n1nnnc1-c1cccnc1,10 to 22,10 to 22,10 to 22,10 to 22,10 to 22,10 to 22,–,–,–,–,–,–,–
CC(=O)N1N=C(Cn2cc(-c3nn(-c4ccncc4)cc3-c3nnnn3-c3ccc([N+](=O)[O-])cc3)c3cc(Cl)ccc32)OC1(C)c1ccc(C(F)(F)F)cc1 (centres undefined),–,–,–,–,–,–,8 to 20,8 to 20,8 to 20,8 to 20,8 to 20,8 to 20,–
COc1ccc(-n2nnnc2-c2cn(-c3ccncc3)nc2-c2cn(CC3=NN(C(C)=O)C(C)(c4ccc(C(F)(F)F)cc4)O3)c3ccc(Cl)cc23)cc1 (centres undefined),–,–,–,–,–,–,8 to 20,8 to 20,8 to 20,8 to 20,8 to 20,8 to 20,–
Clc1cccc(-c2nnnn2-c2ccccn2)c1Cl,10 to 24,10 to 24,10 to 24,10 to 24,10 to 24,10 to 24,–,–,–,–,–,–,–
O=C(N[C@H](CO)[C@H](O)c1ccc([N+](=O)[O-])cc1)C(Cl)Cl [CHLORAMPHENICOL],–,–,–,–,–,–,–,–,–,–,–,–,MIC [19]: 30 µg/mL; MIC [16]: 30 µg/mL; MIC [20]: 30 µg/mL
